{"source": "paper PMC11109052", "about": "“Metabolism characterization and toxicity of N-hydap, a marine candidate drug for lung cancer therapy by LC–MS method” (Natural Products and Bioprospecting, 2024)", "key": {"CYP2C9": {"tested_on": "CYP2C9", "assay": "DME activity ex vivo in MLMs and MKMs: CYP2C9 (4-OH-DIC from DIC)", "conditions": "liver microsomes of mice pretreated 7 days p.o.", "procedure": "Mice were randomly divided into four groups, with eight animals in each group. The mice received oral pretreatment with N-hydap for 7 days at doses of 2, 5, and 10 mg/kg/day, which were considered as the low dose, medium dose, and high dose, respectively. Correspondingly, the control group received PBS. On the 8th day, the liver and kidneys were removed, and organs from eight mice per group were combined to prepare MLMs and MKMs using the detailed procedures above. Subsequently, we determined the activity of CYP and UGT enzymes by specific substrate metabolized with MLMs (0.5 mg/mL) and MKMs (0.2 mg/mL) in vitro. Specifically, the following selective substrates were used for the respective enzymes: PH (1 μM) for CYP1A2, DIC (1 μM) for CYP2C9, MP (90 μM) for CYP2C19, DM (1 μM) for CYP2D6, CZX (10 μM) for CYP2E1, Tes (1 μM) for CYP3A4, SN38 (1 μM) for UGT1A1, CACD (100 μM) for UGT1A3, Sero (20 μM) for UGT1A6, and Prop (1 μM) for UGT1A9. All substrates were dissolved in methanol or DMSO. […] In the ex vivo experiments, the activity of enzymes was measured by quantifying the production of various metabolites (nM/mg protein/min). […] The measurements were performed using multiple reaction monitoring (MRM) transitions, which are specific mass spectrometry transitions used for quantification. […]"}, "Stability in plasma": {"assay": "Stability in plasma", "format": "in vitro ADME", "procedure": "The stability of the KPI solution was examined after storage at 4 °C for 24 h and incubation at 37 °C for 4 h, which was conducted using the QC samples at three concentrations (five samples for each concentration). Stability in plasma and tissue homogenate was assessed by testing samples stored at both 4 °C and room temperature for 24 h."}, "UGT2B7": {"biological_target": "T1, UGT2B7 (Homo sapiens, UniProt P16662)", "T1 construct": "purchased Cypex (Scotland, UK)", "T1 sequence (P16662 24-529)": "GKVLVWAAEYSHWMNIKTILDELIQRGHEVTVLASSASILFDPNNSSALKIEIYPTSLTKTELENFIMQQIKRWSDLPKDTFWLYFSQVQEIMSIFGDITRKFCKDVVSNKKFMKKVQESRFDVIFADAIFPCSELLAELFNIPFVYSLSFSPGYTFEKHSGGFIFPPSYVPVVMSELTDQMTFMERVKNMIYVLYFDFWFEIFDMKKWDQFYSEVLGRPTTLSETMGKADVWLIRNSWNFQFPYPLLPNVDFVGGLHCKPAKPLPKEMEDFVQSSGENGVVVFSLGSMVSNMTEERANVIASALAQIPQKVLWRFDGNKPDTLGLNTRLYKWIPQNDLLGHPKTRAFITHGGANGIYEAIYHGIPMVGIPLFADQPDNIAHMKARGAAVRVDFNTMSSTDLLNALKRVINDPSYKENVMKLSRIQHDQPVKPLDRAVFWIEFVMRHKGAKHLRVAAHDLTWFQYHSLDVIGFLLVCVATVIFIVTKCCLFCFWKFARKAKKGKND", "assay": "Incubation with recombinant human UGT isoforms: UGT2B7", "format": "in vitro ADME", "conditions": "recombinant UGT 2 μg/mL", "procedure": "Incubation of N-hydap (2.5 μM) with eight recombinant human CYP enzymes (CYP1A2, CYP2B6, CYP2C9, CYP2C19, CYP2D6, CYP3A4, CYP4A11 and CYP4F2) at three enzyme concentrations (2, 4, and 20 μg/mL) was conducted following the same procedure as described above for microsomes. Subsequently, incubation with N-hydap (1, 2.5, and 6 μM) and twelve recombinant human UGT isoforms (UGT1A1, UGT1A3, UGT1A4, UGT1A6, UGT1A7, UGT1A8, UGT1A9, UGT1A10, UGT2B4, UGT2B7, UGT2B15 and UGT2B17) was performed, with the enzyme concentration used at 2 μg/mL. All reactions were carried out in triplicate."}, "HKMs": {"tested_on": "HKMs", "assay": "Kinetics of N-hydap glucuronidation in HKMs", "format": "in vitro ADME, human", "conditions": "HKM", "procedure": "Various microsomes including HLMs, HKMs, HIMs, RLMs, RKMs, MLMs and MKMs were involved in CYP and UGT reactions of N-hydap. A typical CYP incubation mixture included 0.5 mg/mL microsomes protein, 3.3 mM glucose-6-phosphate, 3.3 mM MgCl2, 0.4 U/mL glucose-6-phosphate dehydrogenase, and N-hydap (1, 2.5, or 10 μM) in the 50 mM potassium phosphate buffer (KPI, pH 7.4). The incubation mixture was preincubated at 37 °C for 5 min, and the reaction was started by adding NADP to form a NADPH-regenerating system. Simultaneously, the classic UGT reaction system consisted of 50 mM KPI, 5 mM MgCl2, 0.5 mg/mL microsomes, 0.125 mg/mL alamethicin, and 5.25 mg/mL saccharolactone. The reaction was initiated after supplying UDPGA. The CYP and UGT mixtures were incubated at 37 °C in a shaking water bath (80 rpm) for 1.5 h to enhance metabolite formation. To terminate the reaction, an ice-cold solution of Tes (50 ng/mL, dissolved in methanol and used as an internal standard) was added to half of the mixture volume. […]\nThe substrate concentrations used for HLMs were 0.05, 0.5, 2, 2.5, 5, 10, 25, 50, and 100 μM. […] The rates of N-hydap-G by enzymes were expressed as nmol/mg/min, representing the amount of metabolites formed per minute per milligram of protein. Kinetic parameters were determined by analyzing the Eadie–Hofstee plots. […]"}, "CYP3A4": {"tested_on": "CYP3A4", "assay": "DME activity ex vivo in MLMs and MKMs: CYP3A4 (6-OH-Tes from Tes)", "parameters": "species or system mice; key to CYP3A4 Enzymatic activity: ↑: up-regulation; ↓: down-regulation; –: no change", "procedure": "Mice were randomly divided into four groups, with eight animals in each group. The mice received oral pretreatment with N-hydap for 7 days at doses of 2, 5, and 10 mg/kg/day, which were considered as the low dose, medium dose, and high dose, respectively. Correspondingly, the control group received PBS. On the 8th day, the liver and kidneys were removed, and organs from eight mice per group were combined to prepare MLMs and MKMs using the detailed procedures above. Subsequently, we determined the activity of CYP and UGT enzymes by specific substrate metabolized with MLMs (0.5 mg/mL) and MKMs (0.2 mg/mL) in vitro. Specifically, the following selective substrates were used for the respective enzymes: PH (1 μM) for CYP1A2, DIC (1 μM) for CYP2C9, MP (90 μM) for CYP2C19, DM (1 μM) for CYP2D6, CZX (10 μM) for CYP2E1, Tes (1 μM) for CYP3A4, SN38 (1 μM) for UGT1A1, CACD (100 μM) for UGT1A3, Sero (20 μM) for UGT1A6, and Prop (1 μM) for UGT1A9. All substrates were dissolved in methanol or DMSO. The incubation procedure was carried out as mentioned above, and the reaction was terminated with VER (20 ng/mL) in ESI+ mode and CLP (200 ng/mL) in ESI− mode. In the ex vivo experiments, the activity of enzymes was measured by quantifying the production of various metabolites (nM/mg protein/min). The metabolites and their corresponding enzymes are as follows: APAP from PH, 4-OH-DIC from DIC, 4-OH-MP from MP, DXO from DM, 6-OH-CZX from CZX, 6-OH-Tes from Tes, SN38-G from SN38, CACD-G from CACD, Sero-G from Sero, Prop-G from Prop. The measurements were performed using multiple reaction monitoring (MRM) transitions, which are specific mass spectrometry transitions used for quantification. The optimized parameters for each metabolite, such as declustering potential and collision energy, were described in Supplementary Table 1. All experiments were conducted in triplicate, to ensure accuracy and reproducibility."}}}
{"smiles": "CC1CCC2C(C=CC(C)C2C(=O)c2c(O)c(C3(O)CCC(O)C4OC43)cn(O)c2=O)C1", "note": "(stereo not shown) [N-hydap, N-Hydroxyapiosporamide]", "values": [{"measurement": "reduction of formation rate of 4-OH-DIC vs control", "setting": "CYP2C9", "value": 70, "unit": "%"}, {"measurement": "stability, Accuracy (Bias, %)", "setting": "Stability in plasma; 200 nM, 4℃ for 24h", "value": 113.9, "unit": "%"}, {"measurement": "stability, Accuracy (Bias, %)", "setting": "Stability in plasma; 200 nM, room temperature for 24h", "value": 101.9, "unit": "%"}, {"measurement": "stability, Accuracy (Bias, %)", "setting": "Stability in plasma; 600 nM, 4℃ for 24h", "value": 87.98, "unit": "%"}, {"measurement": "stability, Accuracy (Bias, %)", "setting": "Stability in plasma; 600 nM, room temperature for 24h", "value": 105.23, "unit": "%"}, {"measurement": "stability, Accuracy (Bias, %)", "setting": "Stability in plasma; 2500 nM, 4℃ for 24h", "value": 91.36, "unit": "%"}, {"measurement": "stability, Accuracy (Bias, %)", "setting": "Stability in plasma; 2500 nM, room temperature for 24h", "value": 108.04, "unit": "%"}, {"measurement": "contribution of UGT2B7 to formation of N-hydap-G", "setting": "UGT2B7", "value": "secondary contributors"}, {"measurement": "Km", "setting": "HKMs", "value": 240, "unit": "µM"}, {"measurement": "CYP3A4 Enzymatic activity", "setting": "CYP3A4; Kidney", "value": "↑"}, {"measurement": "CYP3A4 Enzymatic activity", "setting": "CYP3A4; Liver", "value": "↑"}, {"measurement": "elevation of formation rate of 6-OH-Tes", "setting": "CYP3A4; MLMs and MKMs, range stated jointly for APAP, SN38-G, 6-OH-Tes and CDCA-G", "value": "12%-331%"}, {"measurement": "CYP3A4 inhibitor, experimental results", "setting": "CYP3A4; Table 4 experimental column", "value": "No"}]}
